# Results: patent US20200085868A1, “Method For Treating Cancer” (China Medical University Hospital, priority 2018, published 2020)
# Entries after “also recorded” stand apart in the source; their conditions may differ.
# Key:
# Type in all cases: cell-based
# [1] = test system: HLA-G expression level on the plasma membrane of the human ovarian cancer cell line SKOV3; experiment: HLA-G expression level of tumor cells treated with chemotherapy drug, immunofluorescence staining assay; conditions: SKOV3, carboplatin 20 μM, 48 hours, vs untreated control
# Method: (§1) To investigate effect of the treatment of the chemotherapy drug on the tumor cells, the tumor cells are treated with the chemotherapy drug, and then detecting the HLA-G expression level of the tumor cells.
# (§2) The tumor cells used are human breast cancer cell line MDA-MB-231, human malignant brain tumor cell line DBTRG-05MG (hereinafter referred to as DBTRG), human pancreatic cancer cell line AsPC1, and human ovarian cancer cell line SKOV3. The tumor cell lines used are all purchased from the American Type Culture Collection (ATCC). The human breast cancer cell line MDA-MB-231 is a triple-negative breast cancer cell line, that is, the hormone receptor (ER, PR) and HER-2 receptor thereof are negative, and the human breast cancer cell line MDA-MB-231 is cultured in RPMI culture medium containing 10% fetal bovine serum (FBS). The human malignant brain tumor cell line DBTRG is cultured in DMEM culture medium containing 10% FBS. […]
# (§3) First, the human breast cancer cell line MDA-MB-231, the human malignant brain tumor cell line DBTRG, the human pancreatic cancer cell line AsPC1 and the human ovarian cancer cell line SKOV3 are seeded in a 6-well plate at a density of 2×10^5 cells/well. […] Then, the HLA-G expression level of the tumor cells are detected by immunofluorescence staining assay and flow cytometry.
# [2] = test system: HLA-G expression of the human ovarian cancer cell line SKOV3; experiment: HLA-G expression of tumor cells treated with chemotherapy drug, flow cytometry; conditions: SKOV3, carboplatin 20 μM, 48 hours; control 14.69%
# Method: (§4) The human ovarian cancer cell line SKOV3 is cultured in McCoy's 5A culture medium containing 10% FBS.
# (§5) First, the human breast cancer cell line MDA-MB-231, the human malignant brain tumor cell line DBTRG, the human pancreatic cancer cell line AsPC1 and the human ovarian cancer cell line SKOV3 are seeded in a 6-well plate at a density of 2×10^5 cells/well. The cells are subsequently incubated for 24 hours. […] In a control, the tumor cells are untreated.
# (§6) Please refer to FIGS. 2A, 2B, 2C, 2D and 2E, which are analytical results of flow cytometry showing a HLA-G expression of tumor cells treated with a chemotherapy drug. FIG. 2A is analytical result of flow cytometry of the human breast cancer cell line MDA-MB-231. FIG. 2B is analytical result of flow cytometry of the human malignant brain tumor cell line DBTRG. FIG. 2C is analytical result of flow cytometry of the human pancreatic cancer cell line AsPC1. FIG. 2D is analytical result of flow cytometry of the human ovarian cancer cell line SKOV3. FIG. 2E is a statistical chart of FIGS. 2A, 2B, 2C and 2D.
# [3] = test system: human ovarian cancer cell line SKOV3; experiment: Tumor cell death (cytotoxicity), Annexin V-FITC and PI staining, flow cytometry; conditions: group 1: chemotherapy drug alone, carboplatin 20 μM; control less than 10%
# Method: (§7) First, the human breast cancer cell line MDA-MB-231, the human malignant brain tumor cell line DBTRG, the human pancreatic cancer cell line AsPC1 and the human ovarian cancer cell line SKOV3 are seeded in a 12-well plate at a density of 1×10^5 cells/well. The cells are subsequently incubated for 24 hours. Each type of the tumor cells is divided into six groups. In a control, the tumor cells are untreated. In a group 1, the tumor cells are treated with the chemotherapy drug. In a group 2, the tumor cells are treated with the parental NK-92 cell line. In a group 3, the tumor cells are treated with the parental NK-92 cell line and the chemotherapy drug. In the groups 2 and 3, the number of the parental NK-92 cell line treated is 1×10^5 cells. In a group 4, the tumor cells are treated with the chimeric antigen receptor expressing cell of Example 1. […] The treated cells are stained with Annexin V-FITC and propidium iodide (PI), and the apoptosis and the death of the tumor cells are detected by the flow cytometry. The sum of the percentage of cells stained with Annexin V-FITC and/or PI (that is the percentage of cells in the first quadrant, the second quadrant, and the fourth quadrant of the bivariate flow cytometry scatter plot) are calculated to obtain the cytotoxicity. The results of the cytotoxicity are counted after the three independent trials in each group. […]
# [4] = test system: HLA-G expression of the human pancreatic cancer cell line AsPC1; experiment: HLA-G expression of tumor cells treated with chemotherapy drug, flow cytometry; conditions: AsPC1, gemcitabine 20 μM, 48 hours; control 13.18%
# Method: as §4, §5, §6
# [5] = test system: human pancreatic cancer cell line AsPC1; experiment: Tumor cell death (cytotoxicity), Annexin V-FITC and PI staining, flow cytometry; conditions: group 1: chemotherapy drug alone, gemcitabine 20 μM
# Method: as §7
# [6] = test system: human breast cancer cell line MDA-MB-231; experiment: as above; conditions: group 1: chemotherapy drug alone, doxorubicin 200 nM; control about 10%
# Method: (§8) The cells are subsequently incubated for 24 hours. […] In a control, the tumor cells are untreated.
# as §8, §8
# [7] = test system: HLA-G expression of the human breast cancer cell line MDA-MB-231; experiment: HLA-G expression of tumor cells treated with chemotherapy drug, flow cytometry; conditions: MDA-MB-231, doxorubicin 200 nM, 48 hours; control 12.27%
# Method: as §1, §2, §3
# [8] = test system: HLA-G expression level on the plasma membrane of the human breast cancer cell line MDA-MB-231; experiment: HLA-G expression level of tumor cells treated with chemotherapy drug, immunofluorescence staining assay; conditions: MDA-MB-231, doxorubicin 200 nM, 48 hours, vs untreated control
# Method: as §1, §2, §3
# [9] = test system: HLA-G expression of the human malignant brain tumor cell line DBTRG; experiment: HLA-G expression of tumor cells treated with chemotherapy drug, flow cytometry; conditions: temozolomide 80 μg/mL, 48 hours, control 14.01%
# Method: as §1, §2, §3
smiles,measurement,setting,value
N.N.O=C([O-])C1(C(=O)[O-])CCC1.[Pt+2] [carboplatin],HLA-G expression level on the plasma membrane,[1],increase
same,mean fluorescence intensity (MFI) of HLA-G,[2],38.58%
same,death rate of SKOV3,[3],"increased, but there is no statistically significant difference compared to the control; also recorded: comparable to that of the control"
Nc1ccn([C@@H]2O[C@H](CO)[C@@H](O)C2(F)F)c(=O)n1 [gemcitabine],mean fluorescence intensity (MFI) of HLA-G,[4],41.44%
same,death rate of AsPC1,[5],"increased, but there is no statistically significant difference compared to the control; also recorded: comparable to that of the control"
COc1cccc2c1C(=O)c1c(O)c3c(c(O)c1C2=O)C[C@@](O)(C(=O)CO)C[C@@H]3O[C@H]1C[C@H](N)[C@H](O)[C@H](C)O1 [doxorubicin],death rate of MDA-MB-231,[6],"increased, but there is no statistically significant difference compared to the control"
same,mean fluorescence intensity (MFI) of HLA-G,[7],64.45%
same,HLA-G expression level on the plasma membrane,[8],increase
Cn1nnc2c(C(N)=O)ncn2c1=O [temozolomide],mean fluorescence intensity (MFI) of HLA-G,[9],22.33%
